Measurements as given in US7972815B2, “Method of producing sugar chain using human G4 polypeptide” (Kyowa Hakko Kirin Co., Ltd., priority 1999, dated 2011).

Tests used:
Format in all cases: biochemical
[1] = target: T1, secretory G4 (Homo sapiens, UniProt Q9Y2A9, R328H); test: β1,3-galactosyltransferase activity of the secretory G4; conditions: receptor substrate 10 mmol/l, 37° C., 16 hours
T1 construct: made in house; host or cells: Sf21 insect cells infected with recombinant baculovirus from pVL1393-F2G4
T1 sequence (Q9Y2A9 38-372 R328H): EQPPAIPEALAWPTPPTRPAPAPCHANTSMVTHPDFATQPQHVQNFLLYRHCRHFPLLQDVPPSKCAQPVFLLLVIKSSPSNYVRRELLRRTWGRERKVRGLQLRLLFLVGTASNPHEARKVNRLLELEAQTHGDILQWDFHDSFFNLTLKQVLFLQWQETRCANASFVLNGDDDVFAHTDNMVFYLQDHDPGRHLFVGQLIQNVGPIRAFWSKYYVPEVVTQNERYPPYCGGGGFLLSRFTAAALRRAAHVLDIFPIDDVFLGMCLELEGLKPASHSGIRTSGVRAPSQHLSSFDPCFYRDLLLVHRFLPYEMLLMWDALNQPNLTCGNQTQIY
Protocol: On the other hand, when β1,3-galactosyltransferase activity of the secretory G4 was measured by using GlcNAc and GlcNAcβ1-3Galβ1-4Glc as receptor substrates, the activity was not detected.
(§1) The glycosyltransferase reaction was carried out as follows. The reaction was carried out at 37° C. for 16 hours in 40 μl of an assay solution [50 mmol/l MOPS (pH 7.5), 5 mmol/l UDP-GlcNAc (SIGMA), 5 mmol/l MnCl2, 10 mmol/l of a sugar chain substrate and 10 μl of the above eluate]. Next, the reaction solution was treated at 100° C. for 5 minutes and then centrifuged at 10,000×g for 20 minutes to obtain the supernatant, and a portion thereof was analyzed by using HPAE/PAD (High Performance Anion Pulsed Amperometoric Detection; manufactured by DIONEX). The specific method was carried out in the usual way [Anal. Biochem., 189, 151 (1990), J. Biol. Chem., 273, 433 (1998)].

[2] = target: T2, secreted G3 (Homo sapiens, UniProt Q9NY97); test: β1,3-galactosyltransferase activity of the secreted G3; conditions: acceptor substrate, method of Example 11(2)
T2 construct: made in house; host or cells: Sf21 insect cells infected with recombinant baculovirus from pVL1393-F2G3
T2 sequence (Q9NY97 31-397): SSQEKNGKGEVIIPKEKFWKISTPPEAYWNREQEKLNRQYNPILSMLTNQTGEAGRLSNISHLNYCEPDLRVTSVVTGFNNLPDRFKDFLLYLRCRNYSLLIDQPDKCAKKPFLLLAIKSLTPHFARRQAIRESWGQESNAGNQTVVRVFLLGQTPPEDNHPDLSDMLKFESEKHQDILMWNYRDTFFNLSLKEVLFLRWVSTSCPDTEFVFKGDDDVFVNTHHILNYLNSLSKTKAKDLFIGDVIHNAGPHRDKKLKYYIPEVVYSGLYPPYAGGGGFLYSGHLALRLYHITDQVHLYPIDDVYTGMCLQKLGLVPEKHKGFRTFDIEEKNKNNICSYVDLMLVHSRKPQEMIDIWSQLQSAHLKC
Protocol: as §1
On the other hand, when β1,3-galactosyltransferase activity of the secreted G3 was measured by using GlcNAc and GlcNAcβ1-3Galβ1-4Glc as acceptor substrates, the activity was not detected. […] The method described in Example 11(2) was used.

[3] = target: T3, secreted G7 (Homo sapiens, UniProt Q9C0J1); test: β1,3-galactosyltransferase activity of the secreted G7; conditions: acceptor substrate, method of Example 11(2)
T3 construct: made in house; host or cells: Sf21 insect cells infected with recombinant baculovirus from pVL1393-F2G7
Protocol: as §1
On the other hand, when β1,3-galactosyltransferase activity of the secreted G7 was measured by using GlcNAc and GlcNAcβ1-3Galβ1-4Glc as acceptor substrates, the activity was not detected. […] The method described in Example 11(2) was used.

T3 sequence (Q9C0J1 56-378): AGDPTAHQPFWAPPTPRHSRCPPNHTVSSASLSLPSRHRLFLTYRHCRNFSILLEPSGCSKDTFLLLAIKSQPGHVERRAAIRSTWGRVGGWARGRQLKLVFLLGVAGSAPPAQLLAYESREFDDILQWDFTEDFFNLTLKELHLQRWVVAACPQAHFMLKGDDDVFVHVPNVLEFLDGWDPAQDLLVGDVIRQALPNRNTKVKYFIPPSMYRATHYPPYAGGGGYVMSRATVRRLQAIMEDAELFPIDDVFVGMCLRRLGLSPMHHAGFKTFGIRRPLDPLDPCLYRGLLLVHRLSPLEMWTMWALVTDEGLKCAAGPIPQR

| β1,3-galactosyltransferase activity [1] | β1,3-galactosyltransferase activity [2] | β1,3-galactosyltransferase activity [3] | SMILES |
| --- | --- | --- | --- |
| not detected | not detected | not detected | CC(=O)N[C@H]1C(O)O[C@H](CO)[C@@H](O)[C@@H]1O (stereo partly drawn) [GlcNAc, N-acetylglucosamine] |
| not detected | not detected | not detected | CC(=O)N[C@H]1[C@H](O[C@H]2[C@@H](O)[C@@H](CO)O[C@@H](O[C@H]3[C@H](O)[C@@H](O)C(O)O[C@@H]3CO)[C@@H]2O)O[C@H](CO)[C@@H](O)[C@@H]1O (stereo partly drawn) [GlcNAcβ1-3Galβ1-4Glc] |
